Data reported in patent US12061201B2, “Fluorescent probes for the visualization of FtsZ in gram-positive and gram-negative bacterial pathogens” (Rutgers, The State University of New Jersey, priority 2019, dated 2024).
Where two headings read alike, the source gives them in different places.

What was measured:
Assay in all cases: Fluorescence anisotropy binding of BOFP to FtsZ
[1] = molecular target: T1, Acinetobacter baumannii FtsZ (AbFtsZ) (Acinetobacter baumannii, UniProt V5V8B6); settings: for Kd: 50 mM Tris-HCl (pH 7.6), 50 mM KCl
T1 sequence (V5V8B6 1-391): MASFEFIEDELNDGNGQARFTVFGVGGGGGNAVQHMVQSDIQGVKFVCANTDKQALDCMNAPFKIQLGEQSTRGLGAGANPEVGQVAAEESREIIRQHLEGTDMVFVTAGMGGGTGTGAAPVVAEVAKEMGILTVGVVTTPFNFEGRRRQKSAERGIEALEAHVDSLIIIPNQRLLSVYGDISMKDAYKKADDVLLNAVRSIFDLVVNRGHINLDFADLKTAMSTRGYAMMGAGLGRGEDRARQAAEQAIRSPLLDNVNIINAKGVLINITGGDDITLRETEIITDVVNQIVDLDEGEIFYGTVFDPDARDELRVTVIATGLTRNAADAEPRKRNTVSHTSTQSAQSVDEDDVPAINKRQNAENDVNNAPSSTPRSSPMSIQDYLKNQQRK
Experimental: (§1) Fluorescence anisotropy assay for determining the affinities and thermodynamics associated with the binding of BOFP to FtsZ proteins. Fluorescence anisotropy experiments were performed using an AVIV model ATF105 spectrofluorometer at 15, 25, or 37° C. In these experiments, bandwidths were set to 4 nm in both the excitation and emission directions, with the excitation and emission wavelengths being set at 488 nm and 510 nm, respectively. BOFP (0.1 μM) was titrated with increasing concentrations (ranging from 0 to 12 μM) of FtsZ in 120 μL of buffer containing 50 mM Tris-HCl (pH 7.6) and 50 mM KCl. After each protein addition, the samples were equilibrated for 3 minutes, whereupon the fluorescence anisotropy was measured.
(§2) [formula] In this equation, r0 is the anisotropy of the protein-free compound, r∞ is the anisotropy of the compound in the presence of an infinite concentration of FtsZ, [C]tot is the total concentration of the compound, and [P]tot is the total concentration of protein with each addition. These analyses yielded the equilibrium dissociation constant (Kd) for each binding reaction.
(§3) The binding free energy (ΔG) at temperature T was derived from the corresponding Kd value determined at T using the following relationship:
(§4) [formula] The binding enthalpy (ΔH) and entropy (ΔS) were derived from linear fits of the ln(1/Kd) vs. 1/T plots shown in FIGS. 3f and 5e using the following relationship:
(§5) A quartz ultra-micro cell (Hellma) with a 2×5 mm aperture and a 15 mm center height was used for all measurements. The pathlengths in the excitation and emissions directions were 1 and 0.2 cm, respectively. All steady-state anisotropy experiments were conducted in at least triplicate, with the reported anisotropies reflecting the average values.

[2] = molecular target: Enterococcus faecalis FtsZ (EfsFtsZ) (Enterococcus faecalis, UniProt O08439); settings: for Kd: 50 mM Tris-HCl (pH 7.6), 50 mM KCl
Enterococcus faecalis FtsZ (EfsFtsZ), sequence (O08439 whole entry): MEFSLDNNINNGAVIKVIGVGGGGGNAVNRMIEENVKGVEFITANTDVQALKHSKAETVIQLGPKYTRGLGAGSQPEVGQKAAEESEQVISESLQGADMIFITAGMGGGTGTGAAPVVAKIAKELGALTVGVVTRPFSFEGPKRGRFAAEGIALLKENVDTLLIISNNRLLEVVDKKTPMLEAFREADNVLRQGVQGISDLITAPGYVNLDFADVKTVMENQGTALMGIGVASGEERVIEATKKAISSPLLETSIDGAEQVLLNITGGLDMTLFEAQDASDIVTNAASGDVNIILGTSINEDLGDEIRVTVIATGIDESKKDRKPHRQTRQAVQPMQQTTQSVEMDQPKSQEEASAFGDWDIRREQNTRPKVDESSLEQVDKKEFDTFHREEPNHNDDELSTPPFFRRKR
Experimental: as §1, §2, §3, §4, §5

[3] = molecular target: Escherichia coli FtsZ (EcFtsZ) (Escherichia coli, UniProt P0A9A6); settings: for Kd: 50 mM Tris-HCl (pH 7.6), 50 mM KCl
Escherichia coli FtsZ (EcFtsZ), sequence (P0A9A6 whole entry): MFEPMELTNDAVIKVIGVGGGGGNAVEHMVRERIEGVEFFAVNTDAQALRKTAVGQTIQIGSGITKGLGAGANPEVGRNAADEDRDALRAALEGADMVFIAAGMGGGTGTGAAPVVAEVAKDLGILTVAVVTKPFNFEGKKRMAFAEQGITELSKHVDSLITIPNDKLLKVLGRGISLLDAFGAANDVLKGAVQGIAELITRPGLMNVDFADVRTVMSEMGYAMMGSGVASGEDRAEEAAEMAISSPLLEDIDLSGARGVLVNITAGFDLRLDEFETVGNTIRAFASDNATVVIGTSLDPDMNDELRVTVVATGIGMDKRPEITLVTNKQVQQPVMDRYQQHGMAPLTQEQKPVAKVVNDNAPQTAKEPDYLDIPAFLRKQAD
Experimental: as §1, §2, §3, §4, §5

[4] = molecular target: Klebsiella pneumoniae FtsZ (KpFtsZ) (Klebsiella pneumoniae, UniProt A0A0H3GRR0); settings: for Kd: 50 mM Tris-HCl (pH 7.6), 50 mM KCl
Klebsiella pneumoniae FtsZ (KpFtsZ), sequence (A0A0H3GRR0 entry or part of it): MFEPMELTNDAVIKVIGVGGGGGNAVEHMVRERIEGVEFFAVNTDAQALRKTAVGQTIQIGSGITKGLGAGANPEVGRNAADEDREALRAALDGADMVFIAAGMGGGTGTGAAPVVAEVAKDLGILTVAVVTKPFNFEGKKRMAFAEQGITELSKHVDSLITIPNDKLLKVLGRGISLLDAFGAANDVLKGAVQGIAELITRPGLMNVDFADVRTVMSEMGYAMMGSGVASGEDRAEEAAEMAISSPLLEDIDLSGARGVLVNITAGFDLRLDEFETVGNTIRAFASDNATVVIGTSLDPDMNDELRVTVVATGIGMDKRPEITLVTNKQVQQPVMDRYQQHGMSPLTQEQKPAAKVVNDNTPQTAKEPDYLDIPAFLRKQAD
Experimental: as §1, §2, §3, §4, §5

S. aureus FtsZ (SaFtsZ) = molecular target: T2, S. aureus FtsZ (SaFtsZ) (Staphylococcus aureus, UniProt P0A031)
T2 sequence (P0A031 1-390): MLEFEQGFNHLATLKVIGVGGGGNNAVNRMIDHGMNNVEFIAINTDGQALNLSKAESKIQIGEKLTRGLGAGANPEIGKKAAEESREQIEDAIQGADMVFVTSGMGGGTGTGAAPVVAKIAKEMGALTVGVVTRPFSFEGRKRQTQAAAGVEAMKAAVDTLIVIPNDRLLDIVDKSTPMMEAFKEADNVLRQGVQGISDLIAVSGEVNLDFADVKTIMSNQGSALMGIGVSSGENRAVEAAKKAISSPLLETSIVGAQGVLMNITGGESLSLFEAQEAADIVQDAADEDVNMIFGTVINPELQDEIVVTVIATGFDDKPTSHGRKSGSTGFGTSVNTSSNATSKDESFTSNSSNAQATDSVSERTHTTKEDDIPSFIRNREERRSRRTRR
Experimental: as §1, §2, §3, §4, §5

[5] = molecular target: T3, Streptococcus pneumoniae FtsZ (SpnFtsZ) (Streptococcus pneumoniae, UniProt A0A0H2ZNE0); settings: for Kd: 50 mM Tris-HCl (pH 7.6), 50 mM KCl
T3 sequence (A0A0H2ZNE0 1-419): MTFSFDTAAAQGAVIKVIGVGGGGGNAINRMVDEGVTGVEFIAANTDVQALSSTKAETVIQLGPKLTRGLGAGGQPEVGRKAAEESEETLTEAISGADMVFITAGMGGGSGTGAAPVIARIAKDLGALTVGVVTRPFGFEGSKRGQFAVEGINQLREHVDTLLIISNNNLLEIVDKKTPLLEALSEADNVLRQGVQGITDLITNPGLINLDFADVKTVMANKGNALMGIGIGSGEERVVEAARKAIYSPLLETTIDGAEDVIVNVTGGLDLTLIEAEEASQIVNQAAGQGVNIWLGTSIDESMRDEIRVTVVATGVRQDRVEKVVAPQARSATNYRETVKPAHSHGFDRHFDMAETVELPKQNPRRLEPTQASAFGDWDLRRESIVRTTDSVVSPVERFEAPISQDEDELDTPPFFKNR
Experimental: as §1, §2, §3, §4, §5

[6] = linear fit of ln(1/Kd) vs. 1/T, Eq. 3
[7] = SaFtsZ, linear fit of ln(1/Kd) vs. 1/T, Eq. 3

SMILES: CC1=CC(C)=[N+]2C1=Cc1ccc(CCC(=O)OCC(Oc3ccc(F)c(C(N)=O)c3F)c3nc(-c4ccc(C(F)(F)F)cc4)c(Br)o3)n1[B-]2(F)F (stereo not drawn) [BOFP, 2-(5-bromo-4-(4-(trifluoromethyl)phenyl)-oxazol-2-yl)-2-(3-carbamoyl-2,4-difluorophenoxy)ethyl 3-(5,5-difluoro-7,9-dimethyl-5H-5λ^4,6λ^4-dipyrrolo[1,2-c:2′,1′-f][1,3,2]diazaborinin-3-yl)propanoate]
- ΔS contribution to the observed ΔG of binding [1]: > 50%
- Kd ([1]; 15° C., read-out: Kd −15° C.): 400 ± 30 nM
- Kd ([1]; 25° C., read-out: Kd −25° C.): 550 ± 20 nM
- Kd ([1]; 37° C., read-out: Kd −37° C.): 680 ± 40 nM
- ΔH [1, 6]: -4.2 ± 0.6 kcal/mol
- ΔS [1, 6]: +14.5 ± 2.1 cal/mol · K
- enthalpic contribution (ΔH) to the observed ΔG of binding [2]: 100%
- Kd ([2]; 15° C., read-out: Kd −15° C.): 1720 ± 60 nM
- Kd ([2]; 25° C., read-out: Kd −25° C.): 3050 ± 250 nM
- Kd ([2]; 37° C., read-out: Kd −37° C.): 4620 ± 120 nM
- ΔG ([2]; T = 310K (37° C.), Eq. 2): -7.6 ± 0.1 kcal/mol
- ΔH [2, 6]: -7.9 ± 1.0 kcal/mol
- ΔS [2, 6]: −1.2 ± 3.3 cal/mol · K
- ΔH contribution to the observed ΔG of binding [3]: > 50%
- Kd ([3]; 15° C., read-out: Kd −15° C.): 220 ± 30 nM
- Kd ([3]; 25° C., read-out: Kd −25° C.): 280 ± 20 nM
- Kd ([3]; 37° C., read-out: Kd −37° C.): 440 ± 40 nM
- ΔG ([3]; T = 310K (37° C.), Eq. 2): -9.0 ± 0.1 kcal/mol
- ΔH [3, 6]: -5.6 ± 0.8 kcal/mol
- ΔS [3, 6]: +11.2 ± 2.7 cal/mol · K
- ΔH contribution to the observed ΔG of binding [4]: > 50%
- Kd ([4]; 15° C., read-out: Kd −15° C.): 420 ± 50 nM
- Kd ([4]; 25° C., read-out: Kd −25° C.): 580 ± 40 nM
- Kd ([4]; 37° C., read-out: Kd −37° C.): 820 ± 40 nM
- ΔG ([4]; T = 310K (37° C.), Eq. 2): -8.6 ± 0.1 kcal/mol
- ΔH [4, 6]: -5.4 ± 0.1 kcal/mol
- ΔS [4, 6]: +10.5 ± 0.1 cal/mol · K
- Kd (S. aureus FtsZ (SaFtsZ)): 880 to 3140 nM
- enthalpic contribution (ΔH) to the observed ΔG of binding (S. aureus FtsZ (SaFtsZ); SaFtsZ): 100%
- Kd (S. aureus FtsZ (SaFtsZ); SaFtsZ, 15° C., 50 mM Tris-HCl (pH 7.6), 50 mM KCl, read-out: Kd −15° C.): 880 ± 80 nM
- Kd (S. aureus FtsZ (SaFtsZ); SaFtsZ, 25° C., 50 mM Tris-HCl (pH 7.6), 50 mM KCl, read-out: Kd −25° C.): 1660 ± 120 nM
- Kd (S. aureus FtsZ (SaFtsZ); SaFtsZ, 37° C., 50 mM Tris-HCl (pH 7.6), 50 mM KCl, read-out: Kd −37° C.): 3140 ± 130 nM
- ΔG (S. aureus FtsZ (SaFtsZ); SaFtsZ, T = 310K (37° C.), Eq. 2): -7.8 ± 0.1 kcal/mol
- ΔH (S. aureus FtsZ (SaFtsZ); [7]): -10.2 ± 0.3 kcal/mol
- ΔS (S. aureus FtsZ (SaFtsZ); [7]): −7.8 ± 1.0 cal/mol · K
- ΔS contribution to the observed ΔG of binding [5]: > 50%
- Kd ([5]; 15° C., read-out: Kd −15° C.): 3020 ± 300 nM
- Kd ([5]; 25° C., read-out: Kd −25° C.): 3490 ± 250 nM
- Kd ([5]; 37° C., read-out: Kd −37° C.): 3810 ± 690 nM
- ΔG ([5]; T = 310K (37° C.), Eq. 2): -7.7 ± 0.1 kcal/mol
- ΔH [5, 6]: -1.9 ± 0.3 kcal/mol
- ΔS [5, 6]: +18.7 ± 1.2 cal/mol · K
